Measured values taken from patent US10894807B2 (Siemens Medical Solutions USA, Inc., priority 2011, dated 2021).
pKi: −log10 of the molar value.

Biological target: human PSMA (Homo sapiens (Human), UniProt Q04609)
Test: Enzymatic assay for in vitro evaluation of PSMA inhibitors (fluorescent assay of PSMA activity, NAAG substrate, OPA detection of glutamate)
Format: biochemical
Details: not given

Chain of human PSMA (Q04609 whole entry): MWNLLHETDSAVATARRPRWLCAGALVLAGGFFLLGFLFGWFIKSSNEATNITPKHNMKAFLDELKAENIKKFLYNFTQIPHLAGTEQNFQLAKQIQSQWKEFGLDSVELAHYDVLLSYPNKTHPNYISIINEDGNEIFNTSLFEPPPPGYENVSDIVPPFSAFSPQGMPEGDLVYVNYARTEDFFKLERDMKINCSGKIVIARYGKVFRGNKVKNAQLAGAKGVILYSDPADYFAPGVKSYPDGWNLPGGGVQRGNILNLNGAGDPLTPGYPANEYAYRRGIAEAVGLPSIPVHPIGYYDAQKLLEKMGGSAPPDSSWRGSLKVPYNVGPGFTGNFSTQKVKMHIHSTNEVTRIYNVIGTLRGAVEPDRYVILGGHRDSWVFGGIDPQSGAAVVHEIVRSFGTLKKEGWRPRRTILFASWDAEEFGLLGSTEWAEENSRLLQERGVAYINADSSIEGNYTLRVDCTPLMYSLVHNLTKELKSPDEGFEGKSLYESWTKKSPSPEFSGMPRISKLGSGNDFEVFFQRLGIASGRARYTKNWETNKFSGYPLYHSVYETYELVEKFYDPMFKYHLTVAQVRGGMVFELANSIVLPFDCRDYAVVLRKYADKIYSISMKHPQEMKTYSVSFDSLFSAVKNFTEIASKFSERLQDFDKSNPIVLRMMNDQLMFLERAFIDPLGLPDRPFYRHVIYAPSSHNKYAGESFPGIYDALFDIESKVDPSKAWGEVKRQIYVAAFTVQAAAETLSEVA

SMILES	pKi
O=C(O)CC[C@H](NC(=O)N(O)C(CCCCNC(=O)OCc1ccccc1)C(=O)O)C(=O)O (stereo partly drawn) [P069, (13S)-10-Hydroxy-3,11-dioxo-1-phenyl-2-oxa-4,10,12-triazapentadecane-9,13,15-tricarboxylic Acid]	6.60
O=C(O)CC[C@H](NC(=S)NC(CCCCNC(=O)OCc1ccccc1)C(=O)O)C(=O)O (stereo partly drawn) [P070, (13S)-3-Oxo-1-phenyl-11-thioxo-2-oxa-4,10,12-triazapentadecane-9,13,15-tricarboxylic Acid]	7.23
O=C(O)CC[C@H](NC(=S)N(O)C(CCCCNC(=O)OCc1ccccc1)C(=O)O)C(=O)O (stereo partly drawn) [P071, (13S)-10-Hydroxy-3-oxo-1-phenyl-11-thioxo-2-oxa-4,10,12-triazapentadecane-9,13,15-tricarboxylic Acid]	7.51
CCC1C(=O)N([C@@H](CCCCNC(=O)OCc2ccccc2)C(=O)O)C(=O)N([C@@H](CCC(=O)O)C(=O)O)C1=O (stereo partly drawn) [P078, (2S)-2-(3-((S)-5-(Benzyloxycarbonylamino)-1-carboxypentyl)-5-ethyl-2,4,6-trioxotetrahydropyrimidin-1(2H)-yl)pentanedioic Acid]	< 6.51
CCC1(CC)C(=O)N([C@@H](CCCCNC(=O)OCc2ccccc2)C(=O)O)C(=O)N([C@@H](CCC(=O)O)C(=O)O)C1=O [P079, (S)-2-(3-((S)-5-(Benzyloxycarbonylamino)-1-carboxypentyl)-5,5-diethyl-2,4,6-trioxotetrahydropyrimidin-1(2H)-yl)pentanedioic Acid]	6.50
O=NC1C(=O)N([C@@H](CCCCNC(=O)OCc2ccccc2)C(=O)O)C(=O)N([C@@H](CCC(=O)O)C(=O)O)C1=O (stereo partly drawn) [P088, (2S)-2-(3-((S)-5-(Benzyloxycarbonylamino)-1-carboxypentyl)-5-nitroso-2,4,6-trioxotetrahydropyrimidin-1(2H)-yl)pentanedioic Acid]	< 6.39
O=C(O)CC[C@@H](C(=O)O)N1C(=O)C([N+](=O)[O-])C(=O)N([C@@H](CCCCNC(=O)OCc2ccc([N+](=O)[O-])cc2)C(=O)O)C1=O (stereo partly drawn) [P089, (2S)-2-(3-((S)-1-Carboxy-5-((((4-nitrobenzyl)oxy)carbonyl)amino)pentyl)-5-nitro-2,4,6-trioxotetrahydropyrimidin-1(2H)-yl)pentanedioic Acid]	< 6.39
O=C(O)CC[C@H](NC(=O)CN(O)C(=O)CCCc1ccc(-n2cc(CCCF)nn2)cc1)C(=O)O [P090, (S)-2-(2-(4-(4-(4-(3-Fluoropropyl)-1H-1,2,3-triazol-1-yl)phenyl)-N-hydroxybutanamido)acetamido)pentanedioic Acid]	6.50
O=C(O)CC[C@H](NC(=O)N(O)[C@@H](CCCCNC(=O)c1ccc(-n2cc(CCCF)nn2)cc1)C(=O)O)C(=O)O [P092, (S)-2-(3-((S)-1-Carboxy-5-(4-(4-(3-fluoropropyl)-1H-1,2,3-triazol-1-yl)benzamido)pentyl)-3-hydroxyureido)pentanedioic Acid]	7.51

Same assay, conditions: compound at 10 μM

SMILES	PSMA Blkg % (10 μM)
O=C(O)CC[C@H](NC(=O)N(O)C(CCCCNC(=O)OCc1ccccc1)C(=O)O)C(=O)O (stereo partly drawn) [P069, (13S)-10-Hydroxy-3,11-dioxo-1-phenyl-2-oxa-4,10,12-triazapentadecane-9,13,15-tricarboxylic Acid]	94%
O=C(O)CC[C@H](NC(=S)NC(CCCCNC(=O)OCc1ccccc1)C(=O)O)C(=O)O (stereo partly drawn) [P070, (13S)-3-Oxo-1-phenyl-11-thioxo-2-oxa-4,10,12-triazapentadecane-9,13,15-tricarboxylic Acid]	94%
O=C(O)CC[C@H](NC(=S)N(O)C(CCCCNC(=O)OCc1ccccc1)C(=O)O)C(=O)O (stereo partly drawn) [P071, (13S)-10-Hydroxy-3-oxo-1-phenyl-11-thioxo-2-oxa-4,10,12-triazapentadecane-9,13,15-tricarboxylic Acid]	96%
O=C(O)CC[C@@H](C(=O)O)N1C(=O)C(=O)N([C@@H](CCCCNC(=O)OCc2ccccc2)C(=O)O)C1=O [P072, (S)-2-(3-((S)-5-(Benzyloxycarbonylamino)-1-carboxypentyl)-2,4,5-trioxoimidazolidin-1-yl)pentanedioic Acid]	39%
[N-]=[N+]=NCCCCC(=O)NCCCC[C@@H](C(=O)O)N1C(=O)CC(=O)N([C@@H](CCC(=O)O)C(=O)O)C1=O [P073, (S)-2-(3-((S)-5-(5-Azidopentanamido)-1-carboxypentyl)-2,4,6-trioxotetrahydropyrimidin-1(2H)-yl)pentanedioic Acid]	2%
O=C(O)CC[C@@H](C(=O)O)N1C(=O)CC(=O)N([C@@H](CCCCNC(=O)Cn2cc(CCCF)nn2)C(=O)O)C1=O [P074, (S)-2-(3-((S)-1-Carboxy-5-(2-(4-(3-fluoropropyl)-1H-1,2,3-triazol-1-yl)acetamido)pentyl)-2,4,6-trioxotetrahydropyrimidin-1(2H)-yl)pentanedioic Acid]	10%
O=C(O)CC[C@H](NC(=O)N1CCC[C@H]1C(=O)O)C(=O)O [P075, (S)-2-((S)-2-Carboxypyrrolidine-1-carboxamido)pentanedioic Acid]	32%
O=C(O)CC[C@@H](C(=O)O)N1C(=O)CC(=O)N([C@@H](CCCCNC(=O)CCCCn2cc(CCCF)nn2)C(=O)O)C1=O [P076, (S)-2-(3-((S)-1-Carboxy-5-(5-(4-(3-fluoropropyl)-1H-1,2,3-triazol-1-yl)pentanamido)pentyl)-2,4,6-trioxotetrahydropyrimidin-1(2H)-yl)pentanedioic Acid]	14%
CC1(C)C(=O)N([C@@H](CCCCNC(=O)OCc2ccccc2)C(=O)O)C(=O)N([C@@H](CCC(=O)O)C(=O)O)C1=O [P077, (S)-2-(3-((S)-5-(Benzyloxycarbonylamino)-1-carboxypentyl)-5,5-dimethyl-2,4,6-trioxotetrahydropyrimidin-1(2H)-yl)pentanedioic Acid]	28%
CN(C(=O)N[C@@H](CCC(=O)O)C(=O)O)[C@@H](CCCCNC(=O)CCCCCn1cc(CCCF)nn1)C(=O)O [P080, (S)-2-(3-((S)-1-Carboxy-5-(6-(4-(3-fluoropropyl)-1H-1,2,3-triazol-1-yl)-hexamido)pentyl)-3-methylureido)pentanedioic Acid]	90%
O=C(O)CCC(NC(=O)N1CC(NC(=O)CCCCn2cc(CCCF)nn2)C[C@H]1C(=O)O)C(=O)O (stereo partly drawn) [P081, 2-((2S)-2-Carboxy-4-(5-(4-(3-fluoropropyl)-1H-1,2,3-triazol-1-yl)pentanamido)pyrrolidine-1-carboxamido)pentanedioic Acid]	25%
C[C@H](NC(=O)N[C@@H](CCC(=O)O)C(=O)O)C(=O)NCCF [P082, (S)-2-(3-((S)-1-((2-Fluoroethyl)amino)-1-oxopropan-2-yl)ureido)pentanedioic Acid]	4%
CN(CCCC[C@H](NC(=O)N[C@@H](CCC(=O)O)C(=O)O)C(=O)O)C(=O)OCc1ccccc1 [P083, (9S,13S)-4-Methyl-3,11-dioxo-1-phenyl-2-oxa-4,10,12-triazapentadecane-9,13,15-tricarboxylic Acid]	100%
O=C(O)CC[C@@H](C(=O)O)n1c(=O)[nH]c(=O)n([C@@H](CCCCNC(=O)OCc2ccccc2)C(=O)O)c1=O [P084, (S)-2-(3-((S)-5-(Benzyloxycarbonylamino)-1-carboxypentyl)-2,4,6-trioxo-1,3,5-triazinan-1-yl)pentanedioic Acid]	19%
Cn1c(=O)n([C@@H](CCCCNC(=O)OCc2ccccc2)C(=O)O)c(=O)n([C@@H](CCC(=O)O)C(=O)O)c1=O [P085, (S)-2-(3-((S)-5-(Benzyloxycarbonylamino)-1-carboxypentyl)-5-methyl-2,4,6-trioxo-1,3,5-triazinan-1-yl)pentanedioic Acid]	0%
CN1C(=O)N(C(CCC(=O)O)C(=O)O)C(=O)[C@@H]1CCCCNC(=O)c1ccc(N=[N+]=[N-])cc1 (stereo partly drawn) [P086, 2-((S)-4-(4-(4-Azidobenzamido)butyl)-3-methyl-2,5-dioxoimidazolidin-1-yl)-pentanedioic Acid]	25%
Cc1nc(N[C@@H](CCC(=O)O)C(=O)O)sc1C(=O)O [P087, (S)-2-((5-Carboxy-4-methylthiazol-2-yl)amino)pentanedioic Acid]	3%
O=C(O)CC[C@H](NC(=O)CN(O)C(=O)CCCc1ccc(-n2cc(CCCF)nn2)cc1)C(=O)O [P090, (S)-2-(2-(4-(4-(4-(3-Fluoropropyl)-1H-1,2,3-triazol-1-yl)phenyl)-N-hydroxybutanamido)acetamido)pentanedioic Acid]	85%
NC1C(=O)N([C@@H](CCCCNC(=O)OCc2ccccc2)C(=O)O)C(=O)N([C@@H](CCC(=O)O)C(=O)O)C1=O (stereo partly drawn) [P091, (2S)-2-(5-Amino-3-((S)-5-(benzyloxycarbonylamino)-1-carboxypentyl)-2,4,6-trioxotetrahydropyrimidin-1(2H)-yl)pentanedioic Acid]	23%
O=C(O)CC[C@H](NC(=O)N(O)[C@@H](CCCCNC(=O)c1ccc(-n2cc(CCCF)nn2)cc1)C(=O)O)C(=O)O [P092, (S)-2-(3-((S)-1-Carboxy-5-(4-(4-(3-fluoropropyl)-1H-1,2,3-triazol-1-yl)benzamido)pentyl)-3-hydroxyureido)pentanedioic Acid]	99%
O=C(O)CC[C@H](NC(=O)CN(O)C(=O)CCCCn1cc(CCCF)nn1)C(=O)O [P093, (S)-2-(2-(5-(4-(3-Fluoropropyl)-1H-1,2,3-triazol-1-yl)-N-hydroxypentanamido)-acetamido)pentanedioic Acid]	16%
O=C(O)CC[C@@H](C(=O)O)N1C(=O)CC(=O)N([C@@H](CCCCNC(=O)CCCc2ccc(-n3cc(CCCF)nn3)cc2)C(=O)O)C1=O [P094, (S)-2-(3-((S)-1-Carboxy-5-(4-(4-(4-(3-fluoropropyl)-1H-1,2,3-triazol-1-yl)phenyl)butanamido)pentyl)-2,4,6-trioxotetrahydropyrimidin-(2H)-yl)pentanedioic Acid]	7%
O=C(O)CC[C@@H](C(=O)O)N1C(=O)CC(=O)N(Cc2ccccc2)C1=O [P095, (S)-2-(3-Benzyl-2,4,6-trioxotetrahydropyrimidin-1(2H)-yl)pentanedioic Acid]	4%
O=C(O)CC[C@@H](C(=O)O)N1C(=O)/C(=C(/O)Cn2cc(CCCF)nn2)C(=O)N(Cc2ccccc2)C1=O [P096, (S,E)-2-(3-Benzyl-5-(2-(4-(3-fluoropropyl)-1H-1,2,3-triazol-1-yl)-1-hydroxyethylidene)-2,4,6-trioxotetrahydropyrimidin-1(2H)-yl)pentanedioic Acid]	3%
O=C(O)CCC(NC(=O)C(=O)N[C@@H](CCC(=O)O)C(=O)O)C(=O)O (stereo partly drawn) [P098, (2′S)-2,2′-(Oxalylbis(azanediyl))dipentanedioic Acid]	23%
O=C(O)CCC(NS(=O)(=O)N[C@@H](CCC(=O)O)C(=O)O)C(=O)O (stereo partly drawn) [P099, (2S)-2,2′-(Sulfonylbis(azanediyl))dipentanedioic Acid]	0%
O=C(O)CC[C@H](NC(=O)NNC(=O)CCCc1ccc(-n2cc(CCCF)nn2)cc1)C(=O)O [P100, (S)-2-(2-(4-(4-(4-(3-Fluoropropyl)-1H-1,2,3-triazol-1-yl)phenyl)butanoyl)-hydrazinecarboxamido)pentanedioic Acid]	3%
O=C(O)CC[C@@H](C(=O)O)N1C(=O)/C(=C(\O)CCCc2ccc(-n3cc(CCCF)nn3)cc2)C(=O)N(Cc2ccccc2)C1=O [P101, (S,Z)-2-(3-Benzyl-5-(4-(4-(4-(3-fluoropropyl)-1H-1,2,3-triazol-1-yl)phenyl)-1-hydroxybutylidene)-2,4,6-trioxotetrahydropyrimidin-1(2H)-yl)pentanedioic Acid]	0%
